Measured values published in PubChem BioAssay (NCI).
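Following 48 hours of exposure in 96-well plates, responses at five concentrations were used to interpolate endpoints linearly. TGI marks complete inhibition of growth.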

Experiments:
Experiment in all cases: NCI tumour cell line growth inhibition, 48 h
[1] = test system: HT29 colon
[2] = test system: IGROV1 ovarian
[3] = test system: HCT-116 colon
[4] = test system: DMS 114 small cell lung
[5] = test system: HCT-15 colon
[6] = test system: EKVX NSCLC
[7] = test system: SF-539 CNS
[8] = test system: OVCAR-8 ovarian
[9] = test system: CAKI-1 renal
[10] = test system: HOP-62 NSCLC
[11] = test system: OVCAR-4 ovarian
[12] = test system: HOP-92 NSCLC
[13] = test system: RXF 393 renal
[14] = test system: HOP-18 NSCLC
[15] = test system: NCI-H23 lung
[16] = test system: SN12C renal
[17] = test system: OVCAR-3 ovarian
[18] = test system: HCC-2998 colon
[19] = test system: A549 NSCLC
[20] = test system: XF 498 CNS
[21] = test system: LXFL 529 NSCLC
[22] = test system: KM20L2 colon
[23] = test system: U251 CNS
[24] = test system: LOX IMVI melanoma
[25] = test system: SNB-75 CNS
[26] = test system: DLD-1 colon
[27] = test system: SK-MEL-5 melanoma
[28] = test system: SK-MEL-28 melanoma
[29] = test system: UACC-257 melanoma
[30] = test system: SW-620 colon
[31] = test system: TK-10 renal
[32] = test system: SNB-78 CNS
[33] = test system: A498 renal
[34] = test system: 786-0 renal
[35] = test system: UACC-62 melanoma
[36] = test system: COLO 205 colon
[37] = test system: ACHN renal
[38] = test system: NCI-H460 lung
[39] = test system: DMS 273 small cell lung
[40] = test system: SK-OV-3 ovarian
[41] = test system: SNB-19 CNS
[42] = test system: M14 melanoma
[43] = test system: SF-295 CNS
[44] = test system: K-562 leukemia
[45] = test system: OVCAR-5 ovarian
[46] = test system: MOLT-4 leukemia
[47] = test system: SF-268 CNS
[48] = test system: M19-MEL melanoma
[49] = test system: MALME-3M melanoma
[50] = test system: UO-31 renal
[51] = test system: KM12 colon
[52] = test system: SK-MEL-2 melanoma
[53] = test system: CCRF-CEM leukemia
[54] = test system: RPMI-8226 leukemia
[55] = test system: HL-60(TB) leukemia
[56] = test system: NCI-H522 lung
[57] = test system: BT-549 breast
[58] = test system: MDA-MB-231 breast
[59] = test system: HS 578T breast
[60] = test system: NCI-H226 lung
[61] = test system: MDA-MB-435
[62] = test system: MDA-N
[63] = test system: DU-145 prostate
[64] = test system: SR leukemia
[65] = test system: MCF7 breast
[66] = test system: PC-3 prostate
[67] = test system: T-47D breast
[68] = test system: NCI/ADR-RES ovarian

SMILES: COc1ccc2c3c(c(C(=O)O)oc13)C(CCC(=O)O)CC2 (stereo not given)
- TGI [1]: > 100 µM
- TGI [2]: > 100 µM
- TGI [3]: > 100 µM
- TGI [4]: > 100 µM
- TGI [5]: > 100 µM
- TGI [6]: > 100 µM
- TGI [7]: > 100 µM
- TGI [8]: > 100 µM
- TGI [9]: > 100 µM
- TGI [10]: > 100 µM
- TGI [11]: > 100 µM
- TGI [12]: > 100 µM
- TGI [13]: > 100 µM
- TGI [14]: > 100 µM
- TGI [15]: > 100 µM
- TGI [16]: > 100 µM
- TGI [17]: > 100 µM
- TGI [18]: > 100 µM
- TGI [19]: > 100 µM
- TGI [20]: > 100 µM
- TGI [21]: > 100 µM
- TGI [22]: > 100 µM
- TGI [23]: > 100 µM
- TGI [24]: > 100 µM
- TGI [25]: > 100 µM
- TGI [26]: > 100 µM
- TGI [27]: > 100 µM
- TGI [28]: > 100 µM
- TGI [29]: > 100 µM
- TGI [30]: > 100 µM
- TGI [31]: > 100 µM
- TGI [32]: > 100 µM
- TGI [33]: > 100 µM
- TGI [34]: > 100 µM
- TGI [35]: > 100 µM
- TGI [36]: > 100 µM
- TGI [37]: > 100 µM
- TGI [38]: > 100 µM
- TGI [39]: > 100 µM
- TGI [40]: > 100 µM
- TGI [41]: > 100 µM
- TGI [42]: > 100 µM
- TGI [43]: > 100 µM

SMILES: CCOC(=O)COc1cccc2occc(=O)c12
- TGI [1]: > 100 µM
- TGI [2]: > 100 µM
- TGI [3]: > 100 µM
- TGI [4]: > 100 µM
- TGI [5]: > 100 µM
- TGI [44]: > 100 µM
- TGI [6]: > 100 µM
- TGI [45]: > 100 µM
- TGI [7]: > 100 µM
- TGI [8]: > 100 µM
- TGI [9]: > 100 µM
- TGI [46]: > 100 µM
- TGI [10]: > 100 µM
- TGI [11]: > 100 µM
- TGI [47]: > 100 µM
- TGI [12]: > 100 µM
- TGI [48]: > 100 µM
- TGI [15]: > 100 µM
- TGI [16]: > 100 µM
- TGI [17]: > 100 µM
- TGI [18]: > 100 µM
- TGI [19]: > 100 µM
- TGI [20]: > 100 µM
- TGI [21]: > 100 µM
- TGI [22]: > 100 µM
- TGI [23]: > 100 µM
- TGI [24]: > 100 µM
- TGI [26]: > 100 µM
- TGI [27]: > 100 µM
- TGI [28]: > 100 µM
- TGI [29]: > 100 µM
- TGI [49]: > 100 µM
- TGI [30]: > 100 µM
- TGI [50]: > 100 µM
- TGI [31]: > 100 µM
- TGI [32]: > 100 µM
- TGI [33]: > 100 µM
- TGI [34]: > 100 µM
- TGI [51]: > 100 µM
- TGI [35]: > 100 µM
- TGI [36]: > 100 µM
- TGI [37]: > 100 µM
- TGI [38]: > 100 µM
- TGI [52]: > 100 µM
- TGI [53]: > 100 µM
- TGI [54]: > 100 µM
- TGI [39]: > 100 µM
- TGI [40]: > 100 µM
- TGI [41]: > 100 µM
- TGI [42]: > 100 µM
- TGI [43]: > 100 µM
- TGI [55]: > 100 µM
- TGI [56]: > 100 µM

SMILES: COc1cc2c(cc1OC)C(SC)C(=O)N(Cc1cccc(OC)c1OC)CC2 (stereo not given)
- TGI [1]: 17.1 µM
- TGI [57]: 33.2 µM
- TGI [2]: > 90.8 µM
- TGI [3]: > 70.2 µM
- TGI [4]: 5.49 µM
- TGI [5]: > 74 µM
- TGI [44]: 41.4 µM
- TGI [6]: > 100 µM
- TGI [45]: 98.3 µM
- TGI [7]: 9.13 µM
- TGI [8]: 70.9 µM
- TGI [9]: > 88.5 µM
- TGI [46]: 45.5 µM
- TGI [10]: > 45.8 µM
- TGI [58]: > 100 µM
- TGI [11]: 98.5 µM
- TGI [59]: > 24.6 µM
- TGI [47]: > 100 µM
- TGI [12]: 16.9 µM
- TGI [13]: > 48.1 µM
- TGI [14]: > 100 µM
- TGI [48]: 22.3 µM
- TGI [60]: 26.8 µM
- TGI [15]: 18.2 µM
- TGI [61]: 8.36 µM
- TGI [16]: > 100 µM
- TGI [17]: 7.03 µM
- TGI [18]: 29.1 µM
- TGI [19]: > 82.7 µM
- TGI [21]: 39.5 µM
- TGI [22]: > 100 µM
- TGI [23]: > 69.3 µM
- TGI [24]: > 83.3 µM
- TGI [25]: > 100 µM
- TGI [26]: > 100 µM
- TGI [27]: 9.52 µM
- TGI [28]: > 42.3 µM
- TGI [29]: 32.2 µM
- TGI [49]: > 66.6 µM
- TGI [62]: 1.53 µM
- TGI [30]: > 100 µM
- TGI [50]: 70 µM
- TGI [31]: > 100 µM
- TGI [32]: 5.19 µM
- TGI [63]: > 23 µM
- TGI [33]: > 54.9 µM
- TGI [34]: > 100 µM
- TGI [51]: 40.3 µM
- TGI [35]: 30.2 µM
- TGI [64]: 24.1 µM
- TGI [36]: 16.9 µM
- TGI [65]: > 42.6 µM
- TGI [37]: > 81.6 µM
- TGI [38]: 28.8 µM
- TGI [52]: 19.1 µM
- TGI [53]: > 55.6 µM
- TGI [66]: > 69 µM
- TGI [54]: 47.5 µM
- TGI [67]: 21.2 µM
- TGI [39]: 12.2 µM
- TGI [40]: > 100 µM
- TGI [41]: > 100 µM
- TGI [42]: 26.5 µM
- TGI [43]: > 43.6 µM
- TGI [55]: 5.63 µM
- TGI [68]: 88.8 µM
- TGI [56]: 3.07 µM

SMILES: O=C(Nc1ccc(Cl)c(Cl)c1)C1C(=O)N(c2ccc(Cl)c(Cl)c2)C(=O)/C1=N\O (stereo not given)
- TGI [1]: > 100 µM
- TGI [2]: > 100 µM
- TGI [3]: > 100 µM
- TGI [4]: 83.7 µM
- TGI [5]: > 100 µM
- TGI [44]: > 100 µM
- TGI [6]: > 100 µM
- TGI [45]: > 100 µM
- TGI [7]: > 100 µM
- TGI [8]: > 100 µM
- TGI [9]: > 100 µM
- TGI [46]: > 100 µM
- TGI [10]: > 100 µM
- TGI [11]: > 100 µM
- TGI [47]: > 100 µM
- TGI [12]: > 100 µM
- TGI [14]: > 100 µM
- TGI [48]: > 100 µM
- TGI [60]: > 100 µM
- TGI [15]: > 100 µM
- TGI [16]: > 100 µM
- TGI [17]: > 100 µM
- TGI [18]: > 100 µM
- TGI [19]: > 100 µM
- TGI [21]: > 100 µM
- TGI [22]: > 100 µM
- TGI [23]: > 100 µM
- TGI [24]: 87.7 µM
- TGI [25]: > 100 µM
- TGI [26]: > 100 µM
- TGI [27]: > 100 µM
- TGI [28]: 82.8 µM
- TGI [29]: > 100 µM
- TGI [49]: > 100 µM
- TGI [30]: > 100 µM
- TGI [50]: > 100 µM
- TGI [31]: > 100 µM
- TGI [32]: > 100 µM
- TGI [33]: > 100 µM
- TGI [34]: > 100 µM
- TGI [35]: > 100 µM
- TGI [36]: 41.9 µM
- TGI [37]: > 100 µM
- TGI [52]: > 100 µM
- TGI [53]: > 100 µM
- TGI [54]: > 100 µM
- TGI [39]: > 100 µM
- TGI [40]: > 100 µM
- TGI [41]: > 100 µM
- TGI [42]: 53.8 µM
- TGI [43]: > 100 µM
- TGI [56]: > 100 µM
